We go through six compounds from US20160303095A1, “METHODS OF TREATING HEPATITIS B VIRUS” (Gilead Sciences, Inc., priority 2015, published 2016).

Where two headings read alike, the source gives them in different places.

Data set [1] is described as follows: Alamar Blue cell viability assay. The data set is classed as cell-based. Conditions: human. The procedure: Alamar Blue cell viability reagent (Cat#DAL1100 Life Technologies, Chicago, Ill.) was diluted 1 to 10 in Maintenance Media and added to the cells. Cells were incubated for 4 h at 37° C. and the fluorescence signal, which is proportional to the number of live cells, was read using a fluorimeter with excitation/emission spectra set at 560/590 nm, respectively. Data were converted into percentages of the untreated control and non-linear regression was performed to calculate CC50 values.
PHH were plated in collagen coated tissue culture plates in Plating Media and after 4-hour incubation at 37° C., cells were switched to Maintenance Media. On the next day, the cells were infected with 500 genome equivalents per cell of Genotype-A clinical isolate 21P (ProteoGenex, Culver City, Calif.) in 100 μl Maintenance Media supplemented with 4% PEG 8000 (Cat#V3011 Promega, Madison, Wis.). After an overnight incubation the inoculum was removed and the cells were washed three times with William's Media E and maintained in Maintenance Media. […] Following the transfection, the cells were incubated at 37° C. in a humidified incubator and media was changed every 3-4 days. The assay was terminated on day 14 post infection and cell viability was assessed by Alamar Blue. The collected medium was used for determination of HBsAg and HBeAg levels by MSD ELISA while cells were processed for determination of HBV RNA using qPCR.

The target in another data set is T1, KDM5D (Homo sapiens, UniProt Q9BY66).
T1 construct: host or cells: Sf9 cells
T1 sequence (Q9BY66 whole entry): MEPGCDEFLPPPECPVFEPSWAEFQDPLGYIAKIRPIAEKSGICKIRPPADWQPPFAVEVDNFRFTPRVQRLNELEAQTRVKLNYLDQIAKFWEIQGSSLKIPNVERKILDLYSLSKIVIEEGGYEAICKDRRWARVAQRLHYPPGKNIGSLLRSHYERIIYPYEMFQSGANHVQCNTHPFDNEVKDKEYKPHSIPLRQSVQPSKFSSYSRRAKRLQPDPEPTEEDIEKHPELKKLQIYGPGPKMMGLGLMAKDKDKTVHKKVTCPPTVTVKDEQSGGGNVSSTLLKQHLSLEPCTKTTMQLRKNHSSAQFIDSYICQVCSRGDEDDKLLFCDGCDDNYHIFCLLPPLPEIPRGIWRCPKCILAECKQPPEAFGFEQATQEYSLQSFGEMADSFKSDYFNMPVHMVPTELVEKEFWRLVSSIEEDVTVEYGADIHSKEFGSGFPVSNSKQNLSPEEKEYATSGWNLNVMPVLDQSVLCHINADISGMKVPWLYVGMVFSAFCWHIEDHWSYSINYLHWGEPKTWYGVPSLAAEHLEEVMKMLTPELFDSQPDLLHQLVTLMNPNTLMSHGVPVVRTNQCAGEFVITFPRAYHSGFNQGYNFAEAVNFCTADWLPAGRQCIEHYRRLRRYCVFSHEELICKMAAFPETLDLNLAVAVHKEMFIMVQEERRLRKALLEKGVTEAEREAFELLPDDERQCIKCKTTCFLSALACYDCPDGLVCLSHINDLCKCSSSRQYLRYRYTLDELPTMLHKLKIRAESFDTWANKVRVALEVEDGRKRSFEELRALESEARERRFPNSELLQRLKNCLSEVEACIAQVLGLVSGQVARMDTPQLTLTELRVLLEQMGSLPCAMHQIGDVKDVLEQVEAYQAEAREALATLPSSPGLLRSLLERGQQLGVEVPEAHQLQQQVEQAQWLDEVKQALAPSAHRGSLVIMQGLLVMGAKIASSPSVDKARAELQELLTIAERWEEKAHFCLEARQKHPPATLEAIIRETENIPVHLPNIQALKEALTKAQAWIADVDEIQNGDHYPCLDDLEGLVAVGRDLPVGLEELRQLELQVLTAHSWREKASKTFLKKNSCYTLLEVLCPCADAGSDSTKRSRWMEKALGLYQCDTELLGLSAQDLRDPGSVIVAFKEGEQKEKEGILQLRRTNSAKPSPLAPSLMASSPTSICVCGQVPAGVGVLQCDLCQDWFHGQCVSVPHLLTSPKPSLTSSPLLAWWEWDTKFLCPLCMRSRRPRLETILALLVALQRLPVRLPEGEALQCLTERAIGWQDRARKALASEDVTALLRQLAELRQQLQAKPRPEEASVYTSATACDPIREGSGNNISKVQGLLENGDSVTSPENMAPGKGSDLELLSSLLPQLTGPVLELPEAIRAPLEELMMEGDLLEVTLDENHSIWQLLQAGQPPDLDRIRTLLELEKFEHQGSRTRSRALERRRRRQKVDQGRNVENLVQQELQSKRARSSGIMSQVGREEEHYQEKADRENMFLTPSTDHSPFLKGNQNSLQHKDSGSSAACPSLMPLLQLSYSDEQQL
Nature of the data set: Biochemical KDM inhibition assay (LANCE), KDM5D. As to conditions: read-out: Biochemical IC50 KDM 5D. Here is the method: Representative compounds were characterized for their inhibition of KDM5 using biotinylated histone substrates. Inhibition was measured in vitro (CEREP Poitier, Le Bois l'Evêque, France) following experimental conditions described in Table 2. Briefly, the test compound, reference compound or water (control) was mixed with about 2-20 ng of recombinant, Human enzymes expressed in Sf9 cells in a buffer containing 45 mM Hepes/Tris (pH 7), 5 μM FAS, 100 μM ascorbic acid, 10 μM 2-oxoglutarate, 0.01% Tween 20 and 0.01% BSA. Thereafter, the reaction was initiated by adding the biotin-labeled substrate, and the mixture was incubated for 10-30 min at room temperature. For basal control measurements, the enzyme was omitted from the reaction mixture. Following incubation the reaction was stopped by adding 1 mM EDTA. After 5 min, the anti-methyl histone antibody labeled with europium chelate and the Ulight streptavidine (Perkin Elmer Waltham, Mass.) were added. After 60 min more, the fluorescence transfer was measured at λex=320 nm and λem=620 and λem=665 nm using a microplate reader (Envision, Perkin Elmer) (LANCE). The enzyme activity was determined by dividing the signal measured at λem=665 nm by that measured at 620 nm (ratio).
(TR-FRET usually uses a lanthanide donor and a delayed reading to cut background.)

A further data set deals with HBV. Put plainly: PHH screening protocol: HBsAg and HBeAg levels by MSD ELISA. The data set is classed as cell-based, Hepatitis B Virus. Conditions: for EC50: Hepatitis B virus; for time dependency of anti HBV activity: PHH donor 8181 infected with patient virus 21p (GTA). Here is the method:
HBV antiviral activity was assessed in primary human hepatocytes (PHH) in a 96-well format. PHH were (Life Technologies, Chicago, 11) plated on collagen coated tissue culture plates using Plating Media containing William's Medium E supplemented with 1% Penicillin/Streptomycin, 4 μg/mL human recombinant insulin, 2 mM glutamax, 15 mM Hepes, 1 μM dexamethasone and 5% fetal bovine serum (Life Technologies, Cat#A12176-01 Life Technologies, Chicago, Ill.). After a 4-hour incubation at 37° C., cells were switched to Maintenance Media (Cat#CM4000-A15564 Life Technologies, Chicago, Ill.) containing William's Medium E supplemented with 0.5% Penicillin/Streptomycin, 6.25 μg/mL human recombinant insulin, 6.25 μg/mL human transferrin, 6.25 ng/mL selenous acid, 1.25 mg/mL bovine serum albumin, 5.35 μg/mL linoleic acid, 2 mM glutamax, 15 mM Hepes, 0.1 μM dexamethasone, 2% fetal bovine serum, and 2% DMSO (Cat#D2650 Sigma, St. Louis, Mo.). On the next day, cells were infected with approximately 500 genome equivalent of selected HBV clinical isolates (21P (GTA), 32P (GTA), 91P (GTA), AD38 (GTD), 65P (GTD) or 30P (GTE); ProteoGenex, Culver City, Calif.) per cell in Maintenance Media supplemented with 4% PEG 8000 (Cat#V3011 Promega, Madison, Wis.). After 24 hour incubation cells were washed three times with William's Medium E and fed with fresh Maintenance Media. Small molecule inhibitors targeting KDMs were serially diluted in Maintenance Media and added to cells at 3 days post infection (p.i.). Media with compounds was replenished every 2-3 days. Media collected on various days was used for determination of HBsAg and HBeAg levels by MSD ELISA, and HBV RNA by qPCR. All data were converted into percentages of the untreated control and non-linear regression was performed to calculate EC50 or CC50 values.
(An ELISA detects its analyte on a solid surface through an enzyme-linked reagent.)

The target of another data set is T2, KDM4E (Homo sapiens, UniProt B2RXH2).
T2 construct: host or cells: Sf9 cells
T2 sequence (B2RXH2 1-506): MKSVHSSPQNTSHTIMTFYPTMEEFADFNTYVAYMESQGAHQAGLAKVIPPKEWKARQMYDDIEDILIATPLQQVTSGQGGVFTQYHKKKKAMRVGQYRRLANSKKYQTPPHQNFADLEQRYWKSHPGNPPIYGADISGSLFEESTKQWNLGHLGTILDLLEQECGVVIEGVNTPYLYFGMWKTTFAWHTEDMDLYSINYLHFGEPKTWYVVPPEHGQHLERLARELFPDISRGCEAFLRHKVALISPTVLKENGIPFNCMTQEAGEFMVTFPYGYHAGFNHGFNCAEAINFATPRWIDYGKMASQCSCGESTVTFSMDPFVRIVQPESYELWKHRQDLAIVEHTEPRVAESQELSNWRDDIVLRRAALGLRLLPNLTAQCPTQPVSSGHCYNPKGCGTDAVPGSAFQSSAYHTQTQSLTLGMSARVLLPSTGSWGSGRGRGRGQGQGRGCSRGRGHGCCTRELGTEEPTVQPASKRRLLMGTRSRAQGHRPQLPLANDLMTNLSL
Put plainly: Biochemical KDM inhibition assay (LANCE), KDM4E. Conditions: read-out: Biochemical IC50 KDM 4E.

Where [2] appears, read: read-out: HBeAg EC50, D 8, PHH donor 8181, virus 21p.
Setting [3] is: read-out: HBeAg EC50, D 13, PHH donor 8181, virus 21p.
Setting [4] is: read-out: HBeAg EC50, D 17, PHH donor 8181, virus 21p.
[5] abbreviates: read-out: HBeAg EC50, D 22, PHH donor 8181, virus 21p.
The mark [6] stands for this setting: read-out: HBeAg EC50, D 27, PHH donor 8181, virus 21p.
Setting [7] is: read-out: HBeAg EC50, HBV-infected PHH.
The mark [8] stands for this setting: read-out: HBsAg EC50, D 8, PHH donor 8181, virus 21p.
Setting [9] is: read-out: HBsAg EC50, D 13, PHH donor 8181, virus 21p.
Where [10] appears, read: read-out: HBsAg EC50, D 17, PHH donor 8181, virus 21p.
Where [11] appears, read: read-out: HBsAg EC50, D 22, PHH donor 8181, virus 21p.
Setting [12] is: read-out: HBsAg EC50, D 27, PHH donor 8181, virus 21p.
Where [13] appears, read: read-out: HBsAg EC50, HBV-infected PHH.

As usually defined, the CC50 is the concentration giving 50% cytotoxicity. The low end stands for harm at low concentration, the high end for better tolerance by the cells. What is called IC50 is the concentration that gives 50% inhibition. A word on the EC50: it is the midpoint of the concentration-response curve. In data set [1], `Nc1c(C(=O)O)ccnc1C(=O)O` [Example 7, reference compound] displayed a CC50 of no less than 100 µM. Moreover, the IC50 on KDM5D was 700 nM; at KDM4E, 64 nM. For the same compound, the EC50 in the data set with HBV (setting [2]) is greater than 50000 nM; in the data set on HBV (setting [3]), 4030 nM; with HBV (setting [4]), 1100 nM; with HBV (setting [5]), 90 nM; in the data set with HBV (setting [6]), 60 nM; in the data set on HBV (read-out: HBeAg EC50, D 31, PHH donor 8181, virus 21p), 60 nM. Further, the EC50 with HBV (setting [7]) was 642 nM; in the data set with HBV (setting [8]), greater than 50000 nM; in the data set on HBV (setting [9]), 990 nM; in the data set with HBV (setting [10]), 580 nM; with HBV (setting [11]) it was 70 nM; with HBV (setting [12]), 60 nM. The EC50 was determined as 60 nM in the data set with HBV (read-out: HBsAg EC50, D 31, PHH donor 8181, virus 21p) and 481 nM with HBV (setting [13]). Also, the “time dependency of anti HBV activity” value with HBV is on record as “time dependent”.
Consider `CCN(CCN(C)C)C(=O)CNCc1cc(C(=O)O)ccn1` [Example 9], for which the CC50 in data set [1] is no less than 50 µM. The IC50 is 66 nM at KDM5D and 35 nM on KDM4E. Further, the EC50 is greater than 100000 nM with HBV (setting [2]); 849 nM in the data set with HBV (setting [3]); 267 nM in the data set with HBV (setting [4]); 153 nM with HBV (setting [5]); 300 nM in the data set on HBV (setting [6]); 1630 nM in the data set with HBV (setting [7]). The concentration giving a half-maximal response (EC50) with HBV (setting [8]) was greater than 100000 nM; in the data set on HBV (setting [9]), 2330 nM; with HBV (setting [10]), 369 nM; with HBV (setting [11]), 200 nM; with HBV (setting [12]), 400 nM; with HBV (setting [13]), 2020 nM. Moreover, the “time dependency of anti HBV activity” value in the data set with HBV is “time dependent”.
Take `Cc1cc(Cl)ccc1COc1ccnn1-c1cc(C(=O)O)ccn1` [Example 11]: the CC50 in data set [1] was no less than 50 µM. In addition, the figures for the IC50 on KDM5D and at KDM4E were 98 nM and 110 nM, respectively. Also, the figures for the EC50 with HBV (setting [7]) and in the data set with HBV (setting [13]) were 5770 nM and 4050 nM, respectively.
In the same order, the values of `O=C(O)c1ccncc1Nc1nn(CCN2CCC(F)(F)CC2)c2ccc(F)cc12` [Example 13] are no less than 50 µM, 65 nM, 670 nM, 5970 nM and 3980 nM.
As to `N#CNC(=O)c1ccncc1Nc1nn(CCN2CCC(F)(F)CC2)c2ccc(F)cc12` [Example 14], in data set [1], the CC50 is no less than 50 µM. The IC50 is 85 nM at KDM5D and 2300 nM on KDM4E. The EC50 in the data set with HBV (setting [7]) came out at 1090 nM; with HBV (setting [13]) it was 1300 nM.
In the case of `CCN(CC)CCCCNCc1cc(C(=O)O)ccn1` [Example 18], the half-maximal inhibitory concentration (IC50) on KDM5D was found to be 33 nM; at KDM4E, 1200 nM. Also, the figures for the EC50 in the data set with HBV (setting [7]) and in the data set on HBV (setting [13]) were 22600 nM and 19500 nM, respectively.
